Experimental data published in patent publication US20090149397A1, “TREATMENT OF CANCER WITH COMBINATIONS OF TOPOISOMERASE INHIBITORS AND PARP INHIBITORS” (priority 2007, published 2009).

How the values were obtained:
[1] = test system: human tumor cells including colon, prostate, cervix, lung, melanoma, lymphoma, and leukemia; assay: In vitro proliferation of human tumor cells; type: cell-based
[2] = test system: human colon, lung, and cervical carcinoma xenograft; assay: Human colon, lung and cervical carcinoma xenograft models, BA administration; type: in vivo, nude and SCID mice
[3] = test system: human small cell lung cancer SW-2 cells; assay: Subcutaneous xenograft model of SCLC, BA plus topotecan; type: in vivo, SCID mice; settings: SW-2 xenograft; for tumor growth delay: topotecan i.p. 0.5, 1 or 2 mg/kg, BA 25 mg/kg/week continuous infusion, BA value in 3 out of 6 animals
Method: The anti-tumor effect of a combination of BA and topotecan, one of the approved drugs for the treatment of small cell lung cancer (SCLC) in humans, is evaluated in an established subcutaneous xenograft model of SCLC. SCID mice (24 animals) are inoculated with human small cell lung cancer SW-2 cells (8×10^6 cells/animal) injected subcutaneously into the right flank of the mice. When the tumors reach about 80 mm^3 in size, the mice are randomly divided into four groups (6 animals per group). The first group of mice is treated with topotecan administered i.p. […] Alzet model osmotic pumps are implanted on days 1, 15, and 29. The pumps are pre-warmed for ˜1 hour at 37° C., and then implanted subcutaneously (s.c.) in the left flanks of isofluoraneanesthetized mice. The third group of mice receives a combination of topotecan and BA, using the same doses and schedules as in groups 1 and 2. A control group of animals receives phosphate-buffered saline (PBS) using the same schedule as the animals in group 2. Tumor growth is monitored by measuring tumor size twice per week. Tumor size is calculated using the formula: length×width×height×(½).

| Structure (SMILES) | inhibition of proliferation of human tumor cells [1] | survival rate of animals ([2]; drug given daily or twice weekly) | tumor growth ([2]; once-daily or twice-weekly administration of BA) | complete tumor regression, number of animals ([3]; out of 6 treated animals per group) [animals] | tumor growth delay [3] [days] |
| --- | --- | --- | --- | --- | --- |
| NC(=O)c1ccc(I)c([N+](=O)[O-])c1 [BA, 4-iodo-3-nitrobenzamide] | inhibits the proliferation | positively affects the survival rate | inhibits tumor growth | 3 | 34 |
| CC[C@@]1(O)C(=O)OCc2c1cc1n(c2=O)Cc2cc3c(CN(C)C)c(O)ccc3nc2-1 [topotecan, reference compound] |  |  |  |  | 12 |
